#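 Exposure lasted 48 hours, with cells grown in 96-well plates and compounds tested at five concentrations. TGI is the concentration that stops growth completely.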
# Tests used:
# Assay in all cases: growth of human tumour cells (NCI), 48 h
# RXF 393 renal = test system: RXF 393 renal
# OVCAR-4 ovarian = test system: OVCAR-4 ovarian
# COLO 205 colon = test system: COLO 205 colon
# SNB-75 CNS = test system: SNB-75 CNS
# NCI-H226 lung = test system: NCI-H226 lung
# U251 CNS = test system: U251 CNS
# UACC-257 melanoma = test system: UACC-257 melanoma
# NCI/ADR-RES ovarian = test system: NCI/ADR-RES ovarian
# OVCAR-3 ovarian = test system: OVCAR-3 ovarian
# MDA-MB-435 = test system: MDA-MB-435
# K-562 leukemia = test system: K-562 leukemia
# IGROV1 ovarian = test system: IGROV1 ovarian
# HCT-116 colon = test system: HCT-116 colon
# SF-539 CNS = test system: SF-539 CNS
# NCI-H460 lung = test system: NCI-H460 lung
# EKVX NSCLC = test system: EKVX NSCLC
# MDA-N = test system: MDA-N
# TK-10 renal = test system: TK-10 renal
# SW-620 colon = test system: SW-620 colon
# 786-0 renal = test system: 786-0 renal
# SK-OV-3 ovarian = test system: SK-OV-3 ovarian
# HS 578T breast = test system: HS 578T breast
# SK-MEL-5 melanoma = test system: SK-MEL-5 melanoma
# HOP-62 NSCLC = test system: HOP-62 NSCLC
# RPMI-8226 leukemia = test system: RPMI-8226 leukemia
# HOP-92 NSCLC = test system: HOP-92 NSCLC
# KM12 colon = test system: KM12 colon
# UACC-62 melanoma = test system: UACC-62 melanoma
# M14 melanoma = test system: M14 melanoma
# PC-3 prostate = test system: PC-3 prostate
# SF-268 CNS = test system: SF-268 CNS
# MALME-3M melanoma = test system: MALME-3M melanoma
# BT-549 breast = test system: BT-549 breast
# SN12C renal = test system: SN12C renal
# HL-60(TB) leukemia = test system: HL-60(TB) leukemia
# NCI-H23 lung = test system: NCI-H23 lung
# HCT-15 colon = test system: HCT-15 colon
# MDA-MB-231 breast = test system: MDA-MB-231 breast
# MOLT-4 leukemia = test system: MOLT-4 leukemia
# ACHN renal = test system: ACHN renal
# SNB-19 CNS = test system: SNB-19 CNS
# LOX IMVI melanoma = test system: LOX IMVI melanoma
# A498 renal = test system: A498 renal
# HCC-2998 colon = test system: HCC-2998 colon
# CCRF-CEM leukemia = test system: CCRF-CEM leukemia
# A549 NSCLC = test system: A549 NSCLC
# OVCAR-8 ovarian = test system: OVCAR-8 ovarian
# SK-MEL-28 melanoma = test system: SK-MEL-28 melanoma
# T-47D breast = test system: T-47D breast
# HT29 colon = test system: HT29 colon
# SF-295 CNS = test system: SF-295 CNS
# SR leukemia = test system: SR leukemia
# SK-MEL-2 melanoma = test system: SK-MEL-2 melanoma
# UO-31 renal = test system: UO-31 renal
# DU-145 prostate = test system: DU-145 prostate
# MCF7 breast = test system: MCF7 breast
# OVCAR-5 ovarian = test system: OVCAR-5 ovarian
# NCI-H522 lung = test system: NCI-H522 lung
# CAKI-1 renal = test system: CAKI-1 renal
structure (smiles),measurement,setting,value
O=C(O)C1(Cc2ccc3c(c2)CCC3)Cc2ccccc2C1=O (configuration not stated),TGI,RXF 393 renal,> 100 µM
same,TGI,OVCAR-4 ovarian,> 100 µM
same,TGI,COLO 205 colon,> 100 µM
same,TGI,SNB-75 CNS,> 100 µM
same,TGI,NCI-H226 lung,> 100 µM
same,TGI,U251 CNS,> 100 µM
same,TGI,UACC-257 melanoma,> 100 µM
same,TGI,NCI/ADR-RES ovarian,> 100 µM
same,TGI,OVCAR-3 ovarian,> 100 µM
same,TGI,MDA-MB-435,> 100 µM
same,TGI,K-562 leukemia,> 100 µM
same,TGI,IGROV1 ovarian,> 100 µM
same,TGI,HCT-116 colon,> 100 µM
same,TGI,SF-539 CNS,> 100 µM
same,TGI,NCI-H460 lung,> 100 µM
same,TGI,EKVX NSCLC,> 100 µM
same,TGI,MDA-N,> 100 µM
same,TGI,TK-10 renal,> 100 µM
same,TGI,SW-620 colon,> 100 µM
same,TGI,786-0 renal,> 100 µM
same,TGI,SK-OV-3 ovarian,> 100 µM
same,TGI,HS 578T breast,> 100 µM
same,TGI,SK-MEL-5 melanoma,> 100 µM
same,TGI,HOP-62 NSCLC,> 100 µM
same,TGI,RPMI-8226 leukemia,92.2 µM
same,TGI,HOP-92 NSCLC,87.3 µM
same,TGI,KM12 colon,> 100 µM
same,TGI,UACC-62 melanoma,> 100 µM
same,TGI,M14 melanoma,> 100 µM
same,TGI,PC-3 prostate,> 100 µM
same,TGI,SF-268 CNS,> 100 µM
same,TGI,MALME-3M melanoma,> 100 µM
same,TGI,BT-549 breast,> 100 µM
same,TGI,SN12C renal,> 100 µM
same,TGI,HL-60(TB) leukemia,> 100 µM
same,TGI,NCI-H23 lung,> 100 µM
same,TGI,HCT-15 colon,> 100 µM
same,TGI,MDA-MB-231 breast,> 100 µM
same,TGI,MOLT-4 leukemia,> 100 µM
same,TGI,ACHN renal,> 100 µM
same,TGI,SNB-19 CNS,> 100 µM
same,TGI,LOX IMVI melanoma,> 100 µM
same,TGI,A498 renal,> 100 µM
same,TGI,HCC-2998 colon,> 100 µM
same,TGI,CCRF-CEM leukemia,> 100 µM
same,TGI,A549 NSCLC,> 100 µM
same,TGI,OVCAR-8 ovarian,> 100 µM
same,TGI,SK-MEL-28 melanoma,> 100 µM
same,TGI,T-47D breast,> 100 µM
same,TGI,HT29 colon,> 100 µM
same,TGI,SF-295 CNS,> 100 µM
same,TGI,SR leukemia,> 100 µM
same,TGI,SK-MEL-2 melanoma,> 100 µM
same,TGI,UO-31 renal,> 100 µM
same,TGI,DU-145 prostate,> 100 µM
same,TGI,MCF7 breast,> 100 µM
same,TGI,OVCAR-5 ovarian,> 100 µM
CC(O)C(O)C(O)C(/C=N\Nc1ccccc1)=N/Nc1ccccc1 (configuration not stated),TGI,COLO 205 colon,27.4 µM
same,TGI,SNB-75 CNS,38.4 µM
same,TGI,U251 CNS,27.2 µM
same,TGI,NCI/ADR-RES ovarian,40.2 µM
same,TGI,OVCAR-3 ovarian,40.4 µM
same,TGI,MDA-MB-435,26.7 µM
same,TGI,K-562 leukemia,40.8 µM
same,TGI,IGROV1 ovarian,21.4 µM
same,TGI,HCT-116 colon,30.5 µM
same,TGI,SF-539 CNS,28.3 µM
same,TGI,NCI-H460 lung,24.6 µM
same,TGI,EKVX NSCLC,27.6 µM
same,TGI,MDA-N,25.1 µM
same,TGI,TK-10 renal,35.4 µM
same,TGI,SW-620 colon,25.8 µM
same,TGI,786-0 renal,29.8 µM
same,TGI,SK-OV-3 ovarian,29.7 µM
same,TGI,HS 578T breast,24.7 µM
same,TGI,NCI-H522 lung,20.9 µM
same,TGI,SK-MEL-5 melanoma,28.5 µM
same,TGI,HOP-62 NSCLC,30.3 µM
same,TGI,RPMI-8226 leukemia,57.1 µM
same,TGI,HOP-92 NSCLC,36 µM
same,TGI,KM12 colon,21.6 µM
same,TGI,UACC-62 melanoma,22.2 µM
same,TGI,M14 melanoma,27.9 µM
same,TGI,PC-3 prostate,49.6 µM
same,TGI,SF-268 CNS,24.5 µM
same,TGI,MALME-3M melanoma,43.5 µM
same,TGI,BT-549 breast,29.4 µM
same,TGI,SN12C renal,34.5 µM
same,TGI,CAKI-1 renal,11.1 µM
same,TGI,HL-60(TB) leukemia,45.3 µM
same,TGI,NCI-H23 lung,24.1 µM
same,TGI,HCT-15 colon,27 µM
same,TGI,MDA-MB-231 breast,27.3 µM
same,TGI,MOLT-4 leukemia,69.5 µM
same,TGI,ACHN renal,25.3 µM
same,TGI,SNB-19 CNS,29.1 µM
same,TGI,LOX IMVI melanoma,18.1 µM
same,TGI,A498 renal,22.6 µM
same,TGI,HCC-2998 colon,23.3 µM
same,TGI,CCRF-CEM leukemia,52.3 µM
same,TGI,A549 NSCLC,28.7 µM
same,TGI,OVCAR-8 ovarian,38.1 µM
same,TGI,SK-MEL-28 melanoma,30.2 µM
same,TGI,T-47D breast,45.9 µM
same,TGI,HT29 colon,30.8 µM
same,TGI,SF-295 CNS,25.7 µM
same,TGI,SR leukemia,41.9 µM
same,TGI,SK-MEL-2 melanoma,21.5 µM
same,TGI,UO-31 renal,25.7 µM
same,TGI,DU-145 prostate,35.7 µM
same,TGI,MCF7 breast,24.1 µM
same,TGI,OVCAR-5 ovarian,27.5 µM

# Reference: PubChem BioAssay (NCI)
